Data set [1] has as its system Mycosphaerella graminicola; Anamorph: Septoria tritici. In words: Leaf Blotch of Wheat (SEPTTR) fungicidal activity on wheat seedlings. In kind it is in vivo. Particulars: Zymoseptoria tritici, Low Volume, 121.5 g/H. The method, boiled down:
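Compounds in acetone were diluted with nine volumes of water containing 110 ppm Triton X-100, or as EC formulations with 0.1% Trycol 5941 for track spray. They were sprayed on first-leaf Yuma wheat seedlings inoculated with S. tritici before or after treatment. Plants spent 1 day dark and 2–3 days lit at 100% RH, 20 °C. Severity (0–100%) was scored once untreated plants were fully diseased; control was computed relative to untreated plants.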

Data set [2] deals with Puccinia triticina; Synonym: Puccinia recondita f sp. tritici. Nature of the data set: Wheat Brown Rust (PUCCRT) fungicidal activity on wheat seedlings. The conditions noted are these: Low Volume, 121.5 g/H. The data set is classed as in vivo. The method in brief: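 Yuma wheat seedlings (first leaf emerged) were sprayed to run-off with compound in acetone/water 1:9 (110 ppm Triton X-100), and P. triticina spores were inoculated before or after treatment. Plants were kept overnight in a 22 °C dark dew room at 100% RH, then moved to a 24 °C greenhouse; % control was based on first-leaf severity (0–100%) versus untreated plants.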

The mark [3] stands for this setting: 24 h, 1 Day Protectant, read-out: SEPTTR 1DP disease control.
Where [4] appears, read: 72 h, 3 Day Curative, read-out: SEPTTR 3DC disease control.

This passage reports pest or weed control and melting point results from patent US20240423207A1, “PICOLINAMIDE COMPOUNDS WITH FUNGICIDAL ACTIVITY” (CORTEVA AGRISCIENCE LLC, priority 2014, published 2024).

Read-outs that look alike come from different tables or passages of the source.

The term melting point denotes the temperature, or range, at which the solid turns liquid. `COc1ccnc(C(=O)N[C@@H](C)C(=O)O[C@@H](C)C(c2ccc(F)cc2)c2ccc(F)cc2)c1OC(=O)C(C)(C)C` [Cmpd 207] had a melting point of 52 to 65 °C. Further, the pest or weed control at 121.5 g/ha in data set [1] (setting [3]) was more than 80%. Besides, in data set [1] (setting [4]), the pest or weed control at 121.5 g/ha is more than 80%.

In the case of `CCCCC(=O)Oc1c(OC)ccnc1C(=O)N[C@@H](C)C(=O)O[C@@H](C)C(c1ccc(F)cc1)c1ccc(F)cc1` [Cmpd 213], the pest or weed control at 121.5 g/ha is more than 80% in data set [1] (setting [3]); more than 80% in data set [1] (setting [4]); less than 80% in data set [2] (24 h, 1 Day Protectant, read-out: PUCCRT 1DP disease control); less than 80% in data set [2] (72 h, 3 Day Curative, read-out: PUCCRT 3DC disease control).
